{"source": "patent US20250034264A1", "about": "“REGULATING T CELL IMMUNE RESPONSE THROUGH IGF-I RECEPTOR (IGF-1R)” (The Regents of the University of Michigan, priority 2021, published 2025)", "key": {"CD34+ fibrocytes": {"test_system": "CD34+ fibrocytes", "test": "MHC II, CD80, CD86, PD-L1 expression in cultured fibrocytes (RT-qPCR, flow cytometry)", "type": "cell-based, human", "description": "Fibrocyte and T cell isolation and cultivation. Peripheral blood mononuclear cells (PBMCs) were obtained from the venous circulation of clinic patients with GD, TAO or from healthy donors after obtaining informed consent. PBMCs were also obtained from Red Cross donor plasmapheresis filters. They were isolated by Ficoll-Histopaque (Sigma-Aldrich, St. Louis, MO) density gradient centrifugation. Fibrocytes were cultivated as described (Bucala, R, et al., (1994) Mol Med 1, 71-81, incorporated herein by reference in its entirety) except that culture substrata remained uncoated with fibronectin, as previously described (Douglas, R. S., et al. (2010) The Journal of clinical endocrinology and metabolism 95, 430-438). Isolated PBMCs (1×10^6-1×107) were inoculated in six-well plates covered with DMEM containing 10% FBS and incubated in 10-14 days. Adherent monolayers (<5% of the starting population) were washed with PBS and detached using accutase (Millipore) treatment, or mechanical scraping following accutase treatment. Culture purity was routinely confirmed by FACS analysis to be >90% fibrocytes by confirming the CD31^−CD45^+CD34^+CXCR4^+Col I^+TSFR^high phenotype.\nInvariably, a small population of tightly adherent T cells were found in the fibrocyte cultures, consistent with the previous findings. Culture viability was routinely verified to be >90%. CD4^+ T cells were enriched using the CD4 isolation cocktail (Cat #0.130-096-533, Miltenyi Biotec, San Diego, CA) followed by negative selection using a magnetic column (Cat #0.130-042-401) according to manufacturer's protocol. Fibrocytes and isolated T cells were cultured and remained untreated or were incubated with human IgG isotype control (5 μg/ml) or teprotumumab (50 μg/mL) for 7 to 9 days. Single cell suspensions were stained with anti-human CD4, CD3, CD34, MHC-2, CD80, CD86, and PD-L1 (BD Biosciences) for 30 min, rinsed and fixed with CytoPerm/CytoFix (BD). They were then stained with anti-human INFγ and IL-17A for 20 min, rinsed, and subjected to the flow cytometry analysis. Gated CD34^+CXCR4^+ fibrocytes and CD4^+CD3^+ T cells were analyzed using quadrant settings based on negative isotype staining.\nIn vitro studies of CD34^+ fibrocytes and T cells PBMC and GD-OF monolayers were treated in vitro with human IgG isotype control (5 μg/ml), teprotumumab (50 μg/mL), H7 (5 μg/mL), linsitinib (1 μM), bTSH (5 mIU/mL), M22 (1 μg/mL), or IGF-1 (10 nM) for the intervals indicted in the figure legends in a 37° C., 5% CO2, humidified incubator until confluent. Brefeldin A (0.66 μl/ml), (Golgi Stop™, BD Biosciences), phorbol 12-myristate 13-acetate (PMA) (50 ng/ml) and ionomycin (1 μg/mL) were added for 5 h. Cells were rinsed with flow cytometry buffer (1×PBS, 0.5% BSA, 0.1% sodium azide) and stained with the relevant monoclonal antibodies.\n(§1) Real-time PCR Confluent fibrocyte and GD-OF cultures were incubated with bTSH (5 mIU/mL), teprotumumab (50 μg/mL) or linsitinib (1 μM) for the time intervals indicated, washed with PBS and RNA was extracted with the Aurum Total RNA Mini Kit (cat. #732-6820, Bio-Rad, Hercules, CA). Cellular RNA (2 μg) was reverse transcribed using QuantiTect Reverse Transcription kit (cat. #205314, Qiagen (Germantown, MD) and real-time PCR was performed using an Applied Biosystems instrument with QuantiTect SYBR Green PCR kit (cat. no. 204143; Qiagen, Frederick, MD). Primer sequences were as follows."}, "[1]": {"test_system": "circulating CD34+CXCR4+ fibrocytes", "test": "Phase 2 TAO trial: MHC II and B7 proteins in circulating fibrocytes (flow cytometry)", "type": "in vivo, human", "conditions": "TAO patients, 20 mg/Kg, 24-week treatment", "experimental": "Studies of circulating CD34^+ fibrocytes and T cells PBMCs from patients with active, moderate to severe TAO enrolled in a phase 2 trial for teprotumumab were cryopreserved immediately after collection. Venous blood sampling occurred at baseline and at week 24, following 8 infusions at 3 weekly intervals. The post-treatment sample was obtained 3 weeks after the final infusion of active drug or placebo. Samples were thawed and incubated with 10% knockout serum replacement medium for 1h and stained. Rinsed samples were subjected to FACS analysis with a Calibur flow cytometer (BD). Viable cells were gated on the basis of forward light scatter. All samples were analyzed using quadrant settings based on negative staining with isotype control antibodies. Mean fluorescent intensity (MFI) was calculated as the ratio of mean sample to isotype control fluorescence. Data were analyzed with FCS Express software (De Novo Software, Ontario, CA)."}, "GD-OF": {"test_system": "GD-OF", "test": "Slit2 and ROBO1 mRNA and Slit2 protein", "type": "cell-based, human", "conditions": "50 μg/ml, 3 d", "experimental": "FIGS. 14A-14B are graphs showing teprotumumab induces Slit2 and roundabout 1 (ROBO1) mRNA and Slit2 protein in GD-OF. Cultures were treated with either isotype control IgG or teprotumumab (50 μg/ml) for 3 d. Culture media were collected and subjected to Slit2-specific ELISA (FIG. 14A). Levels of Slit2 were normalized to respective cell layer protein content. Cellular RNA was harvested from rinsed cell layers and mRNA reverse transcribed, and cDNA subjected to quantitative real-time PCR for Slit2 and ROBO1 (FIG. 14B). Values were normalized to their respective GAPDH levels. * *, p<0.01, * **, p<0.001.\nas §1"}, "[2]": {"conditions": "fibrocytes from GD patients (n=28), 50 μg/mL, 9 d"}, "[3]": {"conditions": "teprotumumab 50 μg/mL, time-dependent over 9 d treatment"}}}
{"substance": "teprotumumab", "values": [{"measurement": "effect on MHC II, CD80, CD86, PD-L1 expression, teprotumumab compared with TSHR inhibitor ML224", "setting": "CD34+ fibrocytes; 9 d, single agents and in combination", "result": "effective"}, {"measurement": "surface proteins MHC II, CD80, CD86, PD-L1 at 9 days", "setting": "CD34+ fibrocytes; 9 days", "result": "uniformly reduced to levels of detectability or below"}, {"measurement": "induction of MHC II, CD80, CD86, PD-L1 surface proteins", "setting": "CD34+ fibrocytes; bTSH-treated fibrocytes", "result": "blocked"}, {"measurement": "frequency of CD34+ fibrocytes", "setting": "CD34+ fibrocytes; cultures from GD patients and healthy controls", "result": "unaffected"}, {"measurement": "reduction in level of CD80 cell-surface protein", "setting": "CD34+ fibrocytes; [2]", "result": 52, "unit": "%"}, {"measurement": "reduction in level of CD86 cell-surface protein", "setting": "CD34+ fibrocytes; [2]", "result": 49, "unit": "%"}, {"measurement": "reduction in level of MHC II cell-surface protein", "setting": "CD34+ fibrocytes; [2]", "result": 57, "unit": "%"}, {"measurement": "reduction in level of PD-L1 cell-surface protein", "setting": "CD34+ fibrocytes; [2]", "result": 47, "unit": "%"}, {"measurement": "induction of MHC II, CD80, CD86, PD-L1 mRNA by bTSH and M22", "setting": "CD34+ fibrocytes; teprotumumab 50 μg/mL, 1H7 5 μg/mL, linsitinib 1 μM", "result": "blocked"}, {"measurement": "protein levels of MHC II, CD80, CD86, PD-L1", "setting": "CD34+ fibrocytes; [3]", "result": "substantially reduced"}, {"measurement": "steady-state mRNA levels of MHC II, CD80, CD86, PD-L1", "setting": "CD34+ fibrocytes; [3]", "result": "substantially reduced"}, {"measurement": "reduction of CD80 expression level compared to baseline", "setting": "[1]", "result": 54, "unit": "%"}, {"measurement": "reduction of CD86 expression level compared to baseline", "setting": "[1]", "result": 47, "unit": "%"}, {"measurement": "reduction of MHC-II expression level compared to baseline", "setting": "[1]", "result": 40, "unit": "%"}, {"measurement": "reduction of PD-L1 expression level compared to baseline", "setting": "[1]", "result": 47, "unit": "%"}, {"measurement": "Slit2 protein synthesis", "setting": "GD-OF; ELISA", "result": "increased"}, {"measurement": "ROBO1 mRNA expression", "setting": "GD-OF; three strains of GD-OF", "result": "induced"}, {"measurement": "Slit2 mRNA expression", "setting": "GD-OF; three strains of GD-OF", "result": "induced"}]}
